Earlier results, collected in patent EP0642530B1, “DERIVATIVES OF DOLASTATIN” (BASF Aktiengesellschaft, priority 1992, dated 1993).

Conditions: background statement, no method given

For Dolastatin-10, the stability to acid is listed as “unstable to acid”.
